The term pKi denotes the negative decadic logarithm of the Ki, by convention in mol/L.

pKi: −log10 of the molar value.

The target in this experiment is human α5β3γ2 receptors (α5-GABAA receptor) (Homo sapiens (Human), UniProt P18507+P31644). Kind of experiment: 3H-flunitrazepam competition binding, human α5β3γ2 GABAA receptor. The settings on record: HEK293 cell membranes, 1 nM 3H-flunitrazepam; read-out: α5-GABAAR Ki. On the procedure: The affinity of the compound to each subtype of GABAA receptor was determined by competing for the binding of ^3H-flunitrazepam to HEK293 cells stably expressing human α1β3γ2, α2β3γ2, α3β3γ2, and α5β3γ2 receptors.
The cells were suspended in 50 mM Tris-HCl buffer (pH=7.4), homogenized 10 times on ice with a homogenizer for 20 seconds, and centrifuged at 1000 g for 10 minutes at 4° C. The supernatant was collected, and the above steps were repeated. The supernatant was centrifuged at 4° C. (33800 g; Thermo, rotor: A27-8×50) for 60 minutes, and the precipitate was resuspended in Tris buffer (50 mM Tris-HCl, 10 mM MgCl2, 0.5 mM EDTA, 10% glycerol). Protein was measured (BCA method, Pierce), and 1 mL aliquots were prepared and stored at −80° C.
The radioligand competition binding assay was performed in a 200 μL system (96-well plate) containing 100 μL of cell membrane. The concentration of ^3H-flunitrazepam was 1 nM and the concentration of the test compound was in the range of […]. Flumazenil was used as a control. 1 μL of 2 mM flumazenil (final concentration […]) was added to the low signal control well (Low control, LC), and 1 μL of DMSO was added to the high signal control well (High control, HC). The final concentration of target membrane protein was […]. All test compound sample storage solutions were 10 mM. The working concentration of the samples was to dilute all the samples to 0.2 mM with DMSO, followed by 4-fold serial gradient dilutions for a total of 8 concentration gradients. The 96-well plate was sealed with a sealing film, and then incubated on a shaker at room temperature for 1 hour. At the same time, the GF/C filter plate was soaked in soaking buffer (0.3% PEI, stored at 4° C.) for at least 0.5 hours. After the binding incubation was completed, the cells were collected onto a GF/C filter plate using a cell harvester. The plate was washed four times with washing buffer (50 mM Tris-HCl, pH 7.4, stored at 4° C.). After drying in a 50° C. oven for 1 hour, the bottom of the dried GF/C filter plate was sealed. The residual radioactivity on the filter membrane was detected using liquid scintillation counting. 50 μL of scintillation fluid was added to each well, and the plate was sealed. The readings were taken using a Microbeta2. The inhibitory activity of the test sample on the binding of ^3H-flunitrazepam to GABAA receptor membrane proteins was calculated, and the IC50 of each test sample was calculated by dose-effect curve fitting (GraphPad Prism 5 software), and the Ki of the sample was calculated from the IC50, thus evaluating the binding ability of the sample to the various subtypes of GABAA receptors.
In the case of `Cc1nnn(-c2ccc(C(F)F)cc2)c1COc1ccc(N2CCN(CCn3cccn3)C(=O)C2)nn1` [Example 138, 1-(2-(1H-Pyrazol-1-yl)ethyl)-4-(6-((1-(4-(difluoromethyl)phenyl)-4-methyl-1H-1,2,3-triazol-5-yl)methoxy)pyridazin-3-yl)piperazin-2-one], the pKi was 8.68.

As for `Cc1nnn(-c2ccc(C(F)F)cc2)c1COc1ccc(N2CCN3c4nc(F)ccc4NC(=O)[C@@H]3C2)nn1` [Example 195, (S)-8-(6-((1-(4-(Difluoromethyl)phenyl)-4-methyl-1H-1,2,3-triazol-5-yl)methoxy)pyridazin-3-yl)-2-fluoro-7,8,9,10-tetrahydro-5H-pyrazino[1,2-a]pyrido[3,2-e]pyrazin-6(6aH)-one], the negative logarithm of the Ki (pKi) is 9.27.

In the case of `CCNC(=O)[C@H]1CCCN1c1ccc(OCc2c(C)nnn2-c2ccc(C(F)F)cc2)nn1` [Example 41, (R)-1-(6-((1-(4-(Difluoromethyl)phenyl)-4-methyl-1H-1,2,3-triazol-5-yl)methoxy)pyridazin-3-yl)-N-ethylpyrrolidine-2-carboxamide], the negative-log Ki (pKi) was 7.37.

Take `Cc1nnn(-c2ccc(C(F)F)cc2)c1COc1ccc(N2C(=O)NC(C)(C)C2=O)nn1` [Example 25, 3-(6-((1-(4-(Difluoromethyl)phenyl)-4-methyl-1H-1,2,3-triazol-5-yl)methoxy)pyridazin-3-yl)-5,5-dimethylimidazolidine-2,4-dione]: the negative-log Ki (pKi) is 7.61.

As for `Cc1nnn(-c2ccc(C(F)F)cc2)c1COc1ccc(N2CC(C(=O)NCc3ccccc3)C2)nn1` [Example 48, N-Benzyl-1-(6-((1-(4-(difluoromethyl)phenyl)-4-methyl-1H-1,2,3-triazol-5-yl)methoxy)pyridazin-3-yl)azetidine-3-carboxamide], the pKi was 8.62.

Consider `Cc1cc(N2CCNC(=O)C2)nnc1OCc1c(C)nnn1-c1ccc(C(F)F)cc1` [Example 81, 4-(6-((1-(4-(Difluoromethyl)phenyl)-4-methyl-1H-1,2,3-triazol-5-yl)methoxy)-5-methylpyridazin-3-yl)piperazin-2-one], for which the pKi is 9.25.

Consider `Cc1nnn(-c2ccc(C(F)F)cc2)c1COc1ccnc(N2CCNC(=O)C2)n1` [Example 213, 4-(4-((1-(4-(Difluoromethyl)phenyl)-4-methyl-1H-1,2,3-triazol-5-yl)methoxy)pyrimidin-2-yl)piperazin-2-one], for which the negative-log Ki (pKi) is 7.27.

For the compound `O=C1NCCN2CCN(c3ccc(OCc4c(CC5CC5)nnn4-c4ccc(C(F)F)cc4)nn3)C[C@@H]12` [Example 187, (S)-8-(6-((4-(Cyclopropylmethyl)-1-(4-(difluoromethyl)phenyl)-1H-1,2,3-triazol-5-yl)methoxy)pyridazin-3-yl)hexahydro-2H-pyrazino[1,2-a]pyrazin-1(6H)-one], the negative-log Ki (pKi) was 7.95.

Consider `CCNC(=O)C1=CCCN(c2ccc(OCc3c(C)nnn3-c3ccc(C(F)F)cc3)nn2)C1` [Example 172, 1-(6-((1-(4-(Difluoromethyl)phenyl)-4-methyl-1H-1,2,3-triazol-5-yl)methoxy)pyridazin-3-yl)-N-ethyl-1,2,5,6-tetrahydropyridine-3-carboxamide], for which the negative-log Ki (pKi) was 9.17.

`COC1CCN(c2ccc(OCc3c(C)nnn3-c3ccc(C(F)F)cc3)nn2)C1` (stereo not drawn) [Example 1, 3-((1-(4-(Difluoromethyl)phenyl)-4-methyl-1H-1,2,3-triazol-5-yl)methoxy)-6-(3-methoxypyrrolidin-1-yl)pyridazine]: the negative-log Ki (pKi) is 8.70.

Take `Cc1nnn(-c2ccc(C(F)F)cc2)c1COc1ccc(N2CC(C(=O)Nc3cnn(C(C)C)c3)C2)nn1` [Example 150, 1-(6-((1-(4-(Difluoromethyl)phenyl)-4-methyl-1H-1,2,3-triazol-5-yl)methoxy)pyridazin-3-yl)-N-(1-isopropyl-1H-pyrazol-4-yl)azetidine-3-carboxamide]: the negative-log Ki (pKi) is 8.63.

`Cc1nnn(-c2ccc(C(F)F)cc2)c1COc1ccc(N2CCn3cnnc3C2)nn1` [Example 84, 7-(6-((1-(4-(Difluoromethyl)phenyl)-4-methyl-1H-1,2,3-triazol-5-yl)methoxy)pyridazin-3-yl)-5,6,7,8-tetrahydro-[1,2,4]triazolo[4,3-a]pyrazine]: the negative logarithm of the Ki (pKi) was 9.22.

For `Cc1nnn(-c2ccc(C(F)F)cc2)c1COc1ccc(N2CCNCC2=O)nn1` [Example 71, 1-(6-((1-(4-(Difluoromethyl)phenyl)-4-methyl-1H-1,2,3-triazol-5-yl)methoxy)pyridazin-3-yl)piperazin-one], the negative logarithm of the Ki (pKi) is 8.05.

With `Cc1nnn(-c2ccc(C(F)F)cc2)c1COc1ccc(N2CC(=O)N3CCS(=O)(=O)C[C@H]3C2)nn1` [Example 175, (R)-8-(6-((1-(4-(Difluoromethyl)phenyl)-4-methyl-1H-1,2,3-triazol-5-yl)methoxy)pyridazin-3-yl)hexahydropyrazino[2,1-c][1,4]thiazin-6(1H)-one 2,2-dioxide], the negative logarithm of the Ki (pKi) was 8.58.

With `Cc1nnn(-c2ccc(C(F)F)cc2)c1COc1ccc(N2CC(=O)N3CCOC[C@@H]3C2)nn1` [Example 174, (S)-8-(6-((1-(4-(Difluoromethyl)phenyl)-4-methyl-1H-1,2,3-triazol-5-yl)methoxy)pyridazin-3-yl)hexahydropyrazino[2,1-c][1,4]oxazin-6(1H)-one], the pKi was 8.86.

Consider `Cc1nnn(-c2ccc(C(F)F)cc2)c1COc1ccc(N2CCN3c4cccnc4NC(=O)[C@@H]3C2)nn1` [Example 193, (S)-3-(6-((1-(4-(difluoromethyl)phenyl)-4-methyl-1H-1,2,3-triazol-5-yl)methoxy)pyridazin-3-yl)-2,3,4,4a-tetrahydro-1H-pyrazino[1,2-a]pyrido[2,3-e]pyrazin-5(6H)-one], for which the pKi is 8.84.

Regarding `CCNC(=O)[C@@H]1CCCN1c1ccc(OCc2c(C)nnn2-c2ccc(C(F)F)cc2)nn1` [Example 42, (S)-1-(6-((1-(4-(Difluoromethyl)phenyl)-4-methyl-1H-1,2,3-triazol-5-yl)methoxy)pyridazin-3-yl)-N-ethylpyrrolidine-2-carboxamide], the pKi is 6.94.

On to `CNC(=O)[C@@H]1CN(c2ccc(OCc3c(C)nnn3-c3ccc(C(F)F)cc3)nn2)CCO1` [Example 38, (S)-4-(6-((1-(4-(Difluoromethyl)phenyl)-4-methyl-1H-1,2,3-triazol-5-yl)methoxy)pyridazin-3-yl)-N-methylmorpholine-2-carboxamide], for which the pKi is 8.61.

On to `COc1cccnc1NC(=O)C1CN(c2ccc(OCc3c(C)nnn3-c3ccc(C(F)F)cc3)nn2)C1` [Example 152, 1-(6-((1-(4-(Difluoromethyl)phenyl)-4-methyl-1H-1,2,3-triazol-5-yl)methoxy)pyridazin-3-yl)-N-(3-methoxypyridin-2-yl)azetidine-3-carboxamide], for which the pKi was 8.78.

As to `Cc1nnn(-c2ccc(F)cc2)c1COc1ccc(N2CCN3CCOC[C@@H]3C2)nn1` [Example 126, (S)-8-(6-((1-(4-Fluorophenyl)-4-methyl-1H-1,2,3-triazol-5-yl)methoxy)pyridazin-3-yl)octahydropyrazino[2,1-c][1,4]oxazine], the negative logarithm of the Ki (pKi) is 7.40.

In the case of `Cc1nnn(-c2ccc(C(F)F)nc2)c1COc1ccc(N2CCNC(=O)C2)nn1` [Example 74, 4-(6-((1-(6-(Difluoromethyl)pyridin-3-yl)-4-methyl-1H-1,2,3-triazol-5-yl)methoxy)pyridazin-3-yl)piperazin-2-one], the pKi was 7.63.
